This is an account of results in US20260055117A1, “SUBSTITUTED PYRIDONE GPR84 ANTAGONISTS AND USES THEREOF” (Liminal BioSciences Limited, priority 2022, published 2026).

SMILES strings stand for the structures.

The assay has as its target T1, human GPR84 receptor (Homo sapiens, UniProt Q9NQS5).
T1 construct: host or cells: HEK293, transiently transfected
Put plainly: Gαi biosensor BRET assay (GPR84 antagonism vs agonist ZQ-16). Conditions: HEK293 cells, 200 nmol/L agonist ZQ-16; for inhibition at 10 µM: tested at 10 μM (concentration code D); for IC50: Gαi biosensor BRET assay; for inhibition at 2 µM: tested at 2 μM (concentration code A). It counts as cell-based. The text has this: Background—The following assays can be used for determination of GPR84 activation in living HEK293 cells. The Gai BRET biosensor (Gagnon et al., 2018; Gales et al., 2006. Nat Struct Mol Biol. 13, 778-86; Saulieres et al., 2012. Nat Chem Biol. 8, 622-30) allows to directly monitor GPR84-mediated activation of Gai. The Gai biosensor consists of a Rluc8-tagged Gai2 subunit, a GFP10-tagged Gy2 subunit, and an untagged GB1. Agonist stimulation and GPR84 activation triggers a physical separation between the RLuc8-Gai donor and the GFP10-Gy2 acceptor, resulting in a decrease in BRET signal whose amplitude is correlated to ligand efficacy (Gales et al., 2006). Moreover, signaling functions of GPCRs are tightly regulated by endocytosis, the targeting of receptors to endosomes and their sorting to lysosomes or recycling to the plasma membrane. The early endosomes (EEs) trafficking assay (Namkung et al., 2016. Nat Commun. 7, 12178) uses Rluc8-tagged GPR84 and Renilla GFP (rGFP) attached to the FYVE domain from human endofin/zinc finger FYVE domain-containing protein 16, which binds phosphatidylinositol 3-phosphate in EEs. Agonist stimulation of GPR84-Rluc8 leads to trafficking of the receptor to EEs, and ensuing increase of the donor concentration relative to the rGFP-FYVE acceptor anchored in the same cellular compartment, and thus results in an increase in BRET signal.
Plasmids—The cDNA clones for human GPR84 receptor, human Gai2, GB1, and Gy2 were obtained from the cDNA Resource Center (www.cdna.org). GFP10 (F64L, S147P, S202F and H231L variant of Aequorea victoria Green Fluorescent Protein) gBlocks gene fragments (Integrated DNA Technologies, IA) and linker were inserted in frame at the N-terminus of human Gy2. Rluc8 (A55T, C124A, S130A, K136R, A143M, M185V, M253L, and S287L variant of the Renilla reniformis luciferase) gBlocks gene fragment was inserted with linkers in frame in between residues 91 and 92 of Gai2 or at the C-terminus of GPR84. The FYVE domain from human endofin (residues Q739 to K806) attached in frame at the C terminus of a humanized Renilla GFP (rGFP), were synthesized as gBlocks gene fragments.
Bioluminescence Resonance Energy Transfer (BRET) Measurement-HEK293 cells were transfected with GPR84-Rluc8 and rGFP-FYVE for the EEs trafficking biosensor or with GPR84, Gai2-Rluc8, GFP10-Gy2, and GB1 for the Ga; biosensor. The following day, transiently transfected cells were seeded in 96-well white clear bottom microplates coated with poly-D-lysine and left in culture for 24 hours. Cells were washed once with Tyrode's buffer (140 mmol/L NaCl, 1 mmol/L CaCl2), 2.7 mmol/L KCl, 0.49 mmol/L MgCl2, 0.37 mmol/L NaH2PO4, 5.6 mmol/L glucose, 12 mmol/L NaHCO3, and 25 mmol/L HEPES, pH 7.5) before performing assays in Tyrode's buffer. Test compounds were incubated with cells for 5 (Gai) or 15 (EEs) minutes at 37° C. before addition of 200 nmol/L of the GPR84 agonist ZQ-16 (2-(Hexylthio)-6-hydroxy-4 (3H)-pyrimidinone) for 5 minutes at room temperature (Gai) or 30 minutes at 37° C. (EEs). The Rluc8 substrate coelenterazine 400A (Prolume, Lakeside, A Z) was added at a final concentration of 5 μmol/L and BRET readings were collected using an Infinite M1000 microplate reader (Tecan, Morrisville, N C). BRET2 readings between Rluc8 and GFP10 or rGFP were collected by sequential integration of the signals detected in the 370 to 450 nm (Rluc8) and 510 to 540 nm (GFP10, rGFP) windows. The BRET signal was calculated as the ratio of light emitted by acceptor (GFP10, rGFP) over the light emitted by donor (Rluc8). The values were corrected to net BRET by subtracting the background BRET signal obtained in cells transfected with Rluc8 constructs alone. Ligand-promoted net BRET values were calculated by subtracting vehicle-induced net BRET from ligand-induced net BRET.
Background: BRET reads energy transfer from a luciferase to a nearby fluorophore.

T1 sequence (Q9NQS5 whole entry): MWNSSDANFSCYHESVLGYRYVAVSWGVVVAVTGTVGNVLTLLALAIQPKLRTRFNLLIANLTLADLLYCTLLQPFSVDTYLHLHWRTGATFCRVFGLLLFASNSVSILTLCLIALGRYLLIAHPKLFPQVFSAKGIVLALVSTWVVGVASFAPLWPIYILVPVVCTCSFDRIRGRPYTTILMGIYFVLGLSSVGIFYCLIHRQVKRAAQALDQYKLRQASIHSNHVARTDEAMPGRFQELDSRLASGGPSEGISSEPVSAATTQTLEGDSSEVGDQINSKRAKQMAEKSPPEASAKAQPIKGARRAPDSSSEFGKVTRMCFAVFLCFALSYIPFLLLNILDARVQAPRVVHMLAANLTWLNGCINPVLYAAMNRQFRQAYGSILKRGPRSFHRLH

By inhibition is commonly meant the change of the read-out against control, counted positive when it falls. A high value points to a strong effect. With `Cc1cc(OCc2ncccn2)cc(=O)n1[C@H](C)c1ccc(C#CC2(C)CC2)cc1` [Compound I-77], the inhibition at 10 µM was in the range of 50 to 75%.
For `Cc1cc(OCC(=O)N(C)C2CNC2)cc(=O)n1[C@H](C)c1ccc(C#CC2CC2)cc1` [Compound I-78], the inhibition at 10 µM is greater than 75%.
For `Cc1cc(OCC(=O)N2CC3(CCN(C)CC3)C2)cc(=O)n1[C@H](C)c1ccc(C#CC2CC2)cc1` [Compound I-79], the inhibition at 10 µM is greater than 75%.
In general, IC50 refers to the concentration that inhibits the measured activity by half. High values mean weaker potency in that assay, low ones greater potency in that assay. On to `Cc1cc(OCC(=O)N(C)C)cc(=O)n1[C@H](C)c1ccc(C#CC2(C)CC2)cc1` [Compound I-80], for which the IC50 was no more than 300 nM and the inhibition at 10 µM was greater than 75%.
With `Cc1cc(OCc2cnc(NS(C)(=O)=O)nc2)cc(=O)n1[C@H](C)c1ccc(C#CC2CC2)cc1` [Compound I-81], the IC50 is no more than 300 nM and the inhibition at 10 µM was greater than 75%.
For the compound `Cc1cc(OCc2cnc(NS(=O)(=O)C(F)(F)F)nc2)cc(=O)n1[C@H](C)c1ccc(C#CC2CC2)cc1` [Compound I-82], the IC50 is no more than 300 nM and the inhibition at 2 µM was greater than 75%.
The compound `Cc1cc(OCC(N(C)C)C(F)(F)F)cc(=O)n1[C@H](C)c1ccc(C#CC2CC2)c(F)c1` (some centres unmarked) [Compound I-85] had an inhibition at 10 µM of 50 to 75%.
The compound `Cc1cc(OCC(N(C)C)C(F)(F)F)cc(=O)n1[C@H](C)c1ccc(C#CC2CC2)cc1` (some centres unmarked) [Compound I-86] displayed an inhibition at 10 µM of 50 to 75%.
`Cc1cc(OCC(=O)N(C)C)cc(=O)n1[C@H](C)c1ccc(C#CC2CC2)cc1Br` [Compound I-87] returned an inhibition at 10 µM of 50 to 75%.
Compound `Cc1cc(OCC(=O)N2CCCC2)cc(=O)n1[C@H](C)c1ccc(C#CC2(C)CC2)cc1` [Compound I-88] came in with a half-inhibitory concentration (IC50) of 300 to 1000 nM and an inhibition at 10 µM greater than 75%.
As to `Cc1nc(OCC(=O)N(C)C)cc(=O)n1C(C)c1ccc(C#CC2CC2)cc1` (centres unmarked) [Compound I-89], the IC50 was no more than 300 nM and the inhibition at 2 µM was greater than 75%.
As for `Cc1cc(C#CC2CC2)cc(=O)n1[C@H](C)c1ccc(C#CC2CC2)cc1` [Compound I-90], the inhibition at 10 µM was 50 to 75%.
In turn, `Cc1cc(OCc2ncccn2)cc(=O)n1[C@H](C)c1ccc(OC(C)C)cc1` [Compound I-129] yielded an inhibition at 10 µM of less than 25%.
On the same count and under the same terms, then `CCCCCCOc1ccc([C@@H](C)n2c(C)cc(OCc3ncccn3)cc2=O)cc1` [Compound I-130], with less than 25%.
For `Cc1cc(OCc2ncccn2)cc(=O)n1[C@H](C)c1ccc(/C=C/C2CC2)cc1` [Compound I-149], the inhibition at 10 µM is less than 25%.
Consider `Cc1cc(OCc2ncccn2)cc(=O)n1[C@H](C)c1ccc(-c2ccc(C3CC3)cc2)cc1` [Compound I-150], for which the inhibition at 10 µM was less than 25%.
`Cc1cc(OCC(=O)N2CCC3(CC2)CN(C)C3)cc(=O)n1[C@H](C)c1ccc(C#CC2CC2)cc1` [Compound I-203] displayed an inhibition at 10 µM of 50 to 75%.
For `Cc1cc(OCC(=O)N(C)C)cc(=O)n1[C@H](C)c1ccc(C#CC2(O)CC2)cc1` [Compound I-210], the inhibition at 10 µM is greater than 75%.
Turning to `Cn1c(-c2ccc(C#CC3CC3)cc2)cc(OCC2COCCO2)nc1=O` (centres unmarked) [Compound I-215], the inhibition at 10 µM is less than 25%.
`Cc1nc(OCC(=O)N(C)C)cc(=O)n1[C@H](C)c1ccc(C#CC2CC2)cc1` [Compound I-217] yielded an IC50 of no more than 300 nM and an inhibition at 2 µM greater than 75%.
The compound `Cc1nc(OCC(=O)N(C)C)cc(=O)n1[C@@H](C)c1ccc(C#CC2CC2)cc1` [Compound I-218] came in with an inhibition at 10 µM of less than 25%.
In turn, `Cc1cc(OCC(=O)N(C)C)cc(=O)n1C(C)c1ccccn1` (centres unmarked) [Compound I-225] returned an inhibition at 10 µM of less than 25%.
In turn, `Cc1cc(OCC(=O)N(C)C)cc(=O)n1C(C)c1ccncc1` (centres unmarked) [Compound I-227] yielded an inhibition at 10 µM of less than 25%.
As for `COc1cc(C(C)n2c(C)cc(OCC(=O)N(C)C)cc2=O)ccn1` (centres unmarked) [Compound I-230], the inhibition at 10 µM was less than 25%.
The compound `Cc1cc(OCC(=O)N(C)C)cc(=O)n1C(C)c1ccnc(O)c1` (centres unmarked) [Compound I-231] showed an inhibition at 10 µM of less than 25%.
As for `Cc1cc(OCC(=O)N(C)CC(F)(F)F)cc(=O)n1[C@H](C)c1ccc(C#CC2CC2)cc1` [Compound I-232], the IC50 is no more than 300 nM and the inhibition at 2 µM is greater than 75%.
On to `Cc1cc(C#CC2CC2)cc(=O)n1[C@@H](C)c1ccc(C#CC2CC2)cc1` [Compound I-234], for which the inhibition at 10 µM is less than 25%.
With `Cc1nc(OCC(=O)N2CCCC2)cc(=O)n1[C@H](C)c1ccc(C#CC2CC2)cc1` [Compound I-235], the IC50 is no more than 300 nM and the inhibition at 2 µM is greater than 75%.
As to `Cc1nc(OCC(=O)N2CCCC2)cc(=O)n1[C@@H](C)c1ccc(C#CC2CC2)cc1` [Compound I-236], the inhibition at 10 µM is 25 to 50%.
As to `Cc1cc(OCC(=O)N(C)CC(F)(F)F)cc(=O)n1[C@@H](C)c1ccc(C#CC2CC2)cc1` [Compound I-237], the inhibition at 10 µM is less than 25%.
In turn, `COc1cccc([C@H](C)n2c(C)cc(C#CC3CC3)cc2=O)c1` [Compound I-238] displayed an inhibition at 2 µM of less than 25%.
`COc1ccc([C@H](C)n2c(C)cc(C#CC3CC3)cc2=O)cc1` [Compound I-239] registered an inhibition at 2 µM of less than 25%.
Turning to `Cc1cc(C#CC2CC2)cc(=O)n1[C@H](C)c1ccc(Br)cc1` [Compound I-240], the inhibition at 10 µM is less than 25%.
`Cc1cc(OCC(=O)N2CC[C@@H](O)C2)cc(=O)n1[C@H](C)c1ccc(C#CC2CC2)cc1` [Compound I-241] yielded an IC50 of no more than 300 nM and an inhibition at 2 µM greater than 75%.
`Cc1cc(OCC(=O)N2CC[C@H](O)C2)cc(=O)n1[C@H](C)c1ccc(C#CC2CC2)cc1` [Compound I-242] displayed an IC50 of no more than 300 nM and an inhibition at 2 µM greater than 75%.
As to `Cc1cc(OCC(=O)N2CC[C@@H](F)C2)cc(=O)n1[C@H](C)c1ccc(C#CC2CC2)cc1` [Compound I-243], the IC50 is no more than 300 nM and the inhibition at 2 µM is greater than 75%.
The matching figures for `Cc1cc(OCC(=O)N2CC[C@H](F)C2)cc(=O)n1[C@H](C)c1ccc(C#CC2CC2)cc1` [Compound I-244]: no more than 300 nM and greater than 75%.
Regarding `Cc1cc(OCC(=O)N2CCC(=O)C2)cc(=O)n1[C@H](C)c1ccc(C#CC2CC2)cc1` [Compound I-245], the IC50 is no more than 300 nM and the inhibition at 2 µM is greater than 75%.
As for `Cc1cc(OCC(=O)N2CCC[C@@H]2C(=O)O)cc(=O)n1[C@H](C)c1ccc(C#CC2CC2)cc1` [Compound I-246], the IC50 fell in the range of 300 to 1000 nM and the inhibition at 10 µM is greater than 75%.
In the case of `Cc1cc(OCC(=O)N2CCC[C@H]2CO)cc(=O)n1[C@H](C)c1ccc(C#CC2CC2)cc1` [Compound I-248], the IC50 was no more than 300 nM and the inhibition at 2 µM is greater than 75%.
The matching figures for `Cc1cc(OCC(=O)N2CC[C@@H](C(=O)O)C2)cc(=O)n1[C@H](C)c1ccc(C#CC2CC2)cc1` [Compound I-250]: no more than 300 nM and greater than 75%.
In turn, `Cc1cc(OCC(=O)N2CC[C@H](C(=O)O)C2)cc(=O)n1[C@H](C)c1ccc(C#CC2CC2)cc1` [Compound I-251] displayed an IC50 of no more than 300 nM and an inhibition at 2 µM greater than 75%.
